The values below come from PubChem BioAssay AID1963982 (Molecular Pharmacology Branch, DTP, NCI, 2024).

The subject of the assay is 313798-341-R-J2-PDC spheroids, viability. The assay is described as follows: Anticancer human tumor 313798-341-R-J2-PDC patient-derived cervical squamous cell carcinoma cell line growth inhibition [PI3K]. The note with it: spheroids with HUVEC and MSC; for viability, T/C: stronger effect = lower value. The procedure, abridged: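 High-throughput combination screen: PI3K inhibitors crossed with targeted small molecules on complex spheroids of tumor cells, HUVEC and MSCs at 37 degrees C, 5% CO2. Top concentration was at or near clinical Cmax (otherwise 10 microM), with half-log decrements.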

pIC50: −log10 of the molar value. Where “and” joins values, the source holds several entries; their conditions need not be identical. Equal values may be shown once.
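Also: spheroids exposed to compounds for seven days.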
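For viability, T/C in this document: 100% = DMSO vehicle control viability.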

For the compound `CC(C)n1nc(-c2ccc3oc(N)nc3c2)c2c(N)ncnc21` + CC(Nc1ccc2c(c1)OCCn1cc(N3C(=O)OCC3C(F)F)nc1-2)C(N)=O, the pIC50 is 7.15 (curve of first compound, second compound 0.00316 µM); 7.18 (curve of first compound, second compound 0.01 µM); 7.31 (curve of first compound, second compound 0.0316 µM); 7.55 (curve of first compound, second compound 0.1 µM); 7.85 (curve of first compound, second compound 0.316 µM); 8.73 (curve of first compound, second compound 1 µM). Also, the viability, T/C runs as follows: (second compound 0.00316 µM, first compound 0.000316 µM) 90.9%; (second compound 0.00316 µM, first compound 0.001 µM) 99%; (second compound 0.00316 µM, first compound 0.00316 µM) 119%; (second compound 0.00316 µM, first compound 0.01 µM) 92.8%; (second compound 0.00316 µM, first compound 0.0316 µM) 78%; (second compound 0.00316 µM, first compound 0.1 µM) 37.8%. In addition, the viability, T/C by setting is: (second compound 0.01 µM, first compound 0.000316 µM) 83.8%; (second compound 0.01 µM, first compound 0.001 µM) 90.4%; (second compound 0.01 µM, first compound 0.00316 µM) 100%; (second compound 0.01 µM, first compound 0.01 µM) 103%; (second compound 0.01 µM, first compound 0.0316 µM) 73.2%; (second compound 0.01 µM, first compound 0.1 µM) 37.2%. Besides, the viability, T/C is 94.6% (second compound 0.0316 µM, first compound 0.000316 µM); 92.3% (second compound 0.0316 µM, first compound 0.001 µM); 92.1% (second compound 0.0316 µM, first compound 0.00316 µM); 92.6% (second compound 0.0316 µM, first compound 0.01 µM); 60.6% (second compound 0.0316 µM, first compound 0.0316 µM); 32.4% (second compound 0.0316 µM, first compound 0.1 µM). The viability, T/C is, setting by setting: (second compound 0.1 µM, first compound 0.000316 µM) 95.6%; (second compound 0.1 µM, first compound 0.001 µM) 97.4%; (second compound 0.1 µM, first compound 0.00316 µM) 92.2%; (second compound 0.1 µM, first compound 0.01 µM) 69.3%; (second compound 0.1 µM, first compound 0.0316 µM) 49.6%; (second compound 0.1 µM, first compound 0.1 µM) 33.2%. For the same compound, the viability, T/C was 83.4% (second compound 0.316 µM, first compound 0.000316 µM); 70.9% (second compound 0.316 µM, first compound 0.001 µM); 64.8% (second compound 0.316 µM, first compound 0.00316 µM); 54.7% (second compound 0.316 µM, first compound 0.01 µM); 43.5% (second compound 0.316 µM, first compound 0.0316 µM); 25.1% (second compound 0.316 µM, first compound 0.1 µM). Also, the viability, T/C runs as follows: (second compound 1 µM, first compound 0.000316 µM) 55.3%; (second compound 1 µM, first compound 0.001 µM) 53.1%; (second compound 1 µM, first compound 0.00316 µM) 45%; (second compound 1 µM, first compound 0.01 µM) 42.1%; (second compound 1 µM, first compound 0.0316 µM) 32.9%; (second compound 1 µM, first compound 0.1 µM) 14.3%.
Take `CC(=O)c1c(C)c2cnc(Nc3ccc(N4CCNCC4)cn3)nc2n(C2CCCC2)c1=O`: the viability, T/C is 105% (2×) and 108% (compound 0.000316 µM); 105% (2×) and 110% (compound 0.001 µM); 109% and 99.2% and 92.1% (compound 0.00316 µM); 101% and 103% and 118% (compound 0.01 µM); 101% (2×) and 97.3% (compound 0.0316 µM); 94.9% and 101% and 110% (compound 0.1 µM). Also, the pIC50 (curve of compound) is below 7.00.
`C=CC(=O)N1CCN(c2nc(=O)n(-c3c(C)ccnc3C(C)C)c3nc(-c4c(O)cccc4F)c(F)cc23)C(C)C1` (stereo unspecified): the viability, T/C was 100% [middle of 4 runs] (compound 0.0316 µM); 95% [middle of 4 runs] (compound 0.1 µM); 95.7% [middle of 4 runs] (compound 0.316 µM); 97.1% [middle of 4 runs] (compound 1 µM); 105% [middle of 4 runs] (compound 3.16 µM); 96.5% (2×) and 104% and 105% (compound 10 µM). In addition, where the note is “curve of compound”, the pIC50 is below 5.00.

The term pIC50 denotes the IC50 on a negative log10 scale, so that one unit is a factor of ten. The viability, T/C is the result in the treated group divided by that in the control group, in per cent.
